By half-life is commonly meant the time needed for the level to fall by half in the phase considered. What is called Cmax is the peak of the concentration-time curve. As a reminder, the Tmax is the time from dosing to the highest level.

For data set [1] the following is noted: in vivo, cited from earlier work. How it is done:
For example, subjects need to take oral semaglutide at least 30 min before the first food, beverage, or other or ...

Data set [2] is described as follows: Study 1: pharmacokinetics of octreotide delivered via RP or IV injection (plasma LC/MS/MS). The note with it: human, in vivo, 100 ug. How it is done:
This was a single-center, open-label study.
Fluoroscopic imaging was performed with Siemens AXIOM Artis dMP using standard abdominal protocol.
Serial blood samples for PK analysis were collected immediately before the injection and at 5, 10, 15, 20, 25, 30, 40, 50, 60, 90, 120, 150, 180, and 240 min after dosing.
Blood samples were collected into potassium-EDTA treated lavender top tubes, plasma was separated via centrifugation and aliquots stored at −80℃ until analyzed. […] The analysis was performed using an API 5000 mass spectrometer from Applied Biosystems.
MS Excel (2016) and GraphPad (Version 8.4.3) were used for data analysis. Categorical data are expressed as counts and percentages, and continuous data as mean ± standard deviation (SD) or standard error (SE), as indicated. PK parameters were calculated using noncompartmental analysis (NCA) implemented within a validated installation of Phoenix® WinNonlin. The Cmax (peak plasma concentration) and Tmax (time to reach Cmax) were obtained graphically from the concentration vs. time profiles. Unpaired t tests were used to determine differences between groups with a p value of 0.05 or less deemed as significant.

On to semaglutide, for which the bioavailability in data set [1] (po) was ~ 1%. Also, in data set [1], the half-life was 170 h.

As for `C[C@@H](O)[C@@H]1NC(=O)[C@H](CCCCN)NC(=O)[C@@H](Cc2c[nH]c3ccccc23)NC(=O)[C@H](Cc2ccccc2)NC(=O)[C@@H](NC(=O)[C@H](N)Cc2ccccc2)CSSC[C@@H](C(=O)N[C@H](CO)[C@@H](C)O)NC1=O` [octreotide], in data set [2], the Cmax amounted to 11.1 ng/mL and the time of peak concentration (Tmax) is 5 min.

The values are drawn from PMC8677648, “A robotic pill for oral delivery of biotherapeutics: safety, tolerability, and performance in healthy subjects” (Drug Delivery and Translational Research, 2021).
